# From the supplement of paper PMC11061612
# Columns and labels:
# Assay in all cases: combination Emax (second highest fraction inhibited in the dose matrix, 72 h); higher = more inhibition; extreme values may be limits of the assay
# 5637 (Bladder Carcinoma) = test system: 5637 (Bladder Carcinoma)
# Method in brief: (§1)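 After 24 hours at 37°C and 5% CO2 in 1536-well plates, cells in DMEM/F12 or RPMI plus 10% FBS received two-drug dose matrices for 72 hours. Viability came from CellTiter-Glo 2.0 luminescence and was scaled as inhibition, anchored at 0 by vehicle wells and at 1 by blank wells. Combination Emax is taken as the second-highest inhibition in the matrix, and Bliss excess as the observed combination effect less EA + EB − EA·EB, with EA and EB the single-agent effects.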
# [1] = test system: NCI-H1703 (Squamous Cell Lung Carcinoma)
# Method in brief: as §1
# [2] = test system: NCI-H441 (Lung Adenocarcinoma)
# Method in brief: as §1
# [3] = test system: JIMT-1 (Breast Carcinoma)
# Method in brief: as §1
# PEO1 (Ovarian Carcinoma) = test system: PEO1 (Ovarian Carcinoma)
# Method in brief: as §1
# [4] = test system: Jurkat (T-Lymphoblastic Leukemia)
# Method in brief: as §1
# [5] = test system: SK-HEP-1 (Hepatocellular Carcinoma)
# Method in brief: as §1
# [6] = test system: huH-1 (Hepatocellular Carcinoma)
# Method in brief: as §1
# [7] = test system: HCC1428 (Breast Carcinoma)
# Method in brief: as §1
# [8] = test system: CESS (Acute Myeloid Leukemia)
# Method in brief: as §1
# [9] = test system: MHH-ES-1 (Ewing's Sarcoma)
# Method in brief: as §1
# EW-7 (Ewing's Sarcoma) = test system: EW-7 (Ewing's Sarcoma)
# Method in brief: as §1
# [10] = test system: ESO26 (Esophageal Adenocarcinoma)
# Method in brief: as §1
# A101D (Melanoma) = test system: A101D (Melanoma)
# Method in brief: as §1
# [11] = test system: MDA-MB-436 (Breast Carcinoma)
# Method in brief: as §1
# [12] = test system: 22RV1 (Prostate Carcinoma)
# Method in brief: as §1
# KP-N-YN (Neuroblastoma) = test system: KP-N-YN (Neuroblastoma)
# Method in brief: as §1
# [13] = test system: HT55 (Colorectal Carcinoma)
# Method in brief: as §1
# [14] = test system: EPLC-272H (Other Solid Carcinomas)
# Method in brief: as §1
# [15] = test system: DMS-53 (Small Cell Lung Carcinoma)
# Method in brief: as §1
SMILES,combination Emax (5637 (Bladder Carcinoma)),combination Emax [1],combination Emax [2],combination Emax [3],combination Emax (PEO1 (Ovarian Carcinoma)),combination Emax [4],combination Emax [5],combination Emax [6],combination Emax [7],combination Emax [8],combination Emax [9],combination Emax (EW-7 (Ewing's Sarcoma)),combination Emax [10],combination Emax (A101D (Melanoma)),combination Emax [11],combination Emax [12],combination Emax (KP-N-YN (Neuroblastoma)),combination Emax [13],combination Emax [14],combination Emax [15]
"NC1(C(=O)N[C@@H](CCO)c2ccc(Cl)cc2)CCN(c2ncnc3[nH]ccc23)CC1 [Capivasertib] + C[C@@H]1COCCN1C2=NC(=NC(=C2)C3(CC3)[S@](=N)(=O)C)C4=C5C=CNC5=NC=C4 [AZD6738] (first compound max 10 µM, 7x7, partner max 10 µM)",0.564,0.928,0.448,0.612,0.616,0.961,0.318,0.692,0.318,0.91,0.645,1,0.599,0.803,0.372,0.76,0.962,0.545,0.885,0.34
"Cn1cnc2c(F)c(Nc3ccc(Br)cc3Cl)c(C(=O)NOCCO)cc21 [Selumetinib] + CC(C)n1c(=O)n(C)c2cnc3cc(F)c(-c4ccc(OCCCN5CCCCC5)nc4)cc3c21 [AZD1390] (first compound max 10 µM, 7x7, partner max 0.3 µM)",0.236,0.122,0.221,0.131,0.266,0.124,0.193,0.107,0.169,0.243,0.126,0.15,0.115,0.528,0.259,0.307,0.398,0.669,0.651,0.132
"Cc1c2c(nn1C)CSCc1cc(n(C)n1)CSc1cc(c3ccccc3c1)OCCCc1c(C(=O)O)n(C)c3c-2c(Cl)ccc13 [AZD5991] + Cc1cc2ncnn2cc1Nc1ncc2c(n1)n(C1CCOCC1)c(=O)n2C [AZD7648] (first compound max 1 µM, 7x7, partner max 10 µM)",0.233,0.891,0.259,0.255,0.178,0.951,0.295,0.337,0.977,0.416,0.688,0.652,0.198,0.997,0.226,0.575,0.228,0.242,0.94,0.554
"COc1cccc(OCCCN)c1-c1cc(Nc2cnc(C#N)cn2)n[nH]1 [Prexasertib] + CCc1c2c(nc3ccc(O)cc13)-c1cc3c(c(=O)n1C2)COC(=O)[C@]3(O)CC [SN-38] (first compound max 1 µM, 7x7, partner max 0.3 µM)",1,0.971,0.712,0.87,0.71,1,0.761,0.767,0.797,0.983,1,0.96,0.76,0.899,0.693,0.727,0.985,0.863,0.922,0.878
"CS(=O)(=O)CCNCc1ccc(-c2ccc3ncnc(Nc4ccc(OCc5cccc(F)c5)c(Cl)c4)c3c2)o1 [Lapatinib] + C[C@@H](Oc1cc(-c2cnn(C3CCNCC3)c2)cnc1N)c1c(Cl)ccc(F)c1Cl [Crizotinib] (first compound max 10 µM, 7x7, partner max 10 µM)",1,0.746,0.6,0.851,0.718,0.947,0.255,0.671,0.471,0.896,0.912,0.956,0.854,0.971,0.248,0.706,0.755,0.931,0.959,0.25
"CC1(C)CCC(CN2CCN(c3ccc(C(=O)NS(=O)(=O)c4ccc(NCC5CCOCC5)c([N+](=O)[O-])c4)c(Oc4cnc5[nH]ccc5c4)c3)CC2)=C(c2ccc(Cl)cc2)C1 [Venetoclax] + C[C@@H](Nc1cc(F)cc(F)c1)c1cc(C(=O)N(C)C)cc2c(=O)cc(N3CCOCC3)oc12 [AZD8186] (first compound max 1 µM, 7x7, partner max 3 µM)",0.141,0.422,0.184,0.087,0.0947,0.271,0.131,0.152,0.147,0.587,0.191,0.95,0.0996,0.387,0.288,0.322,0.569,0.14,0.419,0.137
"Cc1c2c(nn1C)CSCc1cc(n(C)n1)CSc1cc(c3ccccc3c1)OCCCc1c(C(=O)O)n(C)c3c-2c(Cl)ccc13 [AZD5991] + Cn1cnc2c(F)c(Nc3ccc(Br)cc3Cl)c(C(=O)NOCCO)cc21 [Selumetinib] (first compound max 1 µM, 7x7, partner max 3 µM)",0.37,0.856,0.405,0.284,0.25,0.927,0.311,0.152,0.977,0.289,0.672,0.271,0.274,1,0.152,0.498,0.204,0.692,0.94,0.618
"COc1nnc2ccc(N3CCC(c4ccc(OCCN5CCN(C)C(=O)[C@H]5C)cc4)CC3)nn12 [AZD5153] + Cc1c2c(nn1C)CSCc1cc(n(C)n1)CSc1cc(c3ccccc3c1)OCCCc1c(C(=O)O)n(C)c3c-2c(Cl)ccc13 [AZD5991] (first compound max 1 µM, 7x7, partner max 1 µM)",0.637,0.966,0.384,0.611,0.432,1,0.583,0.435,0.984,0.76,0.911,0.759,0.778,0.924,0.293,0.857,0.449,0.61,0.959,0.612
"COc1cccc(OCCCN)c1-c1cc(Nc2cnc(C#N)cn2)n[nH]1 [Prexasertib] + Cc1cc2ncnn2cc1Nc1ncc2c(n1)n(C1CCOCC1)c(=O)n2C [AZD7648] (first compound max 1 µM, 7x7, partner max 10 µM)",0.845,0.951,0.505,0.864,0.415,1,0.296,0.762,0.345,0.971,0.742,0.971,0.504,0.762,0.431,0.575,0.992,0.65,0.918,0.293
"CCN(CCO)CCCOc1ccc2c(Nc3cc(CC(=O)Nc4cccc(F)c4)[nH]n3)ncnc2c1 [AZD2811] + C[C@@H]1COCCN1C2=NC(=NC(=C2)C3(CC3)[S@](=N)(=O)C)C4=C5C=CNC5=NC=C4 [AZD6738] (first compound max 1 µM, 7x7, partner max 10 µM)",0.827,0.834,0.407,0.677,0.553,0.865,0.42,0.712,0.172,0.893,0.685,0.902,0.0804,0.682,0.311,0.566,0.957,0.515,0.849,0.144
"COc1cccc(OCCCN)c1-c1cc(Nc2cnc(C#N)cn2)n[nH]1 [Prexasertib] + C[C@@H]1COCCN1C2=NC(=NC(=C2)C3(CC3)[S@](=N)(=O)C)C4=C5C=CNC5=NC=C4 [AZD6738] (first compound max 1 µM, 7x7, partner max 10 µM)",0.845,0.97,0.544,0.857,0.489,0.992,0.462,0.762,0.378,0.978,0.693,0.971,0.541,0.773,0.473,0.655,1,0.65,0.942,0.272
"CN(C)CCCOc1ccc(-c2ccc3ncc4c(c3c2)n(C2CCOCC2)c(=O)n4C)cn1 [AZD0156] + C=CCn1c(=O)c2cnc(Nc3ccc(N4CCN(C)CC4)cc3)nc2n1-c1cccc(C(C)(C)O)n1 [AZD1775] (first compound max 1 µM, partner max 1 µM)",0.745,0.967,0.329,0.488,0.341,0.879,0.469,0.592,0.125,0.929,0.671,0.884,0.458,0.495,0.195,0.346,0.95,0.407,0.771,0.148
"NC1(C(=O)N[C@@H](CCO)c2ccc(Cl)cc2)CCN(c2ncnc3[nH]ccc23)CC1 [Capivasertib] + CC(C)n1c(=O)n(C)c2cnc3cc(F)c(-c4ccc(OCCCN5CCCCC5)nc4)cc3c21 [AZD1390] (first compound max 10 µM, 7x7, partner max 0.3 µM)",0.336,0.548,0.252,0.202,0.32,0.697,0.318,0.299,0.186,0.456,0.354,0.587,0.449,0.46,0.267,0.527,0.359,0.381,0.632,0.187
